Results from PMC5795001, “The activity of the C4-dicarboxylic acid chemoreceptor of Pseudomonas aeruginosa is controlled by chemoattractants and antagonists” (Scientific Reports, 2018).

Assays:
[1] = system: Pseudomonas aeruginosa PAO1; test: Quantitative capillary chemotaxis assay, wild type; type: cell-based
Procedure: Secondly, we assessed the capacity of the ligands identified to induce chemotaxis. To this end, we carried out quantitative capillary chemotaxis assays using the wt strain and PA2652 ligands at concentrations ranging from 10 µM to 100 mM.
Overnight cultures of P. aeruginosa strains were diluted to an OD660 of 0.05 in MS medium (30 mM Na2HPO4, 20 mM KH2PO4, 25 mM NH4NO3, 1 mM MgSO4) supplemented with 6 mg l^−1 Fe-citrate, trace elements[81] and 15 mM glucose as carbon source, and grown at 37 °C with orbital shaking (200 rpm). At an OD660 of 0.4 ([…]) cultures were centrifuged at 1,700 × g for 5 min and the resulting pellet was washed twice with chemotaxis buffer (50 mM potassium phosphate, […], 0.05% (v/v) glycerol, pH 7.0). Subsequently, the cells were resuspended in the same buffer, adjusted to an OD660 of 0.1 and 230 µl aliquots of the bacterial cultures were placed into 96-well plates. For the quantitative assays, one-microliter capillary tubes (Microcaps, Drummond Scientific, Ref. P1424) were heat-sealed at one end and filled with either the chemotaxis buffer (negative control) or chemotaxis buffer containing the chemoeffectors to test. The capillaries were immersed into the bacterial suspensions at its open end. After 30 min at room temperature, capillaries were removed from the bacterial suspensions, rinsed with sterile water and the content expelled into 1 ml of M9 medium salts. Serial dilutions were plated onto M9 minimal medium (containing the appropriate antibiotics) supplemented with 15 mM glucose as carbon source. The number of colony forming units was determined after overnight incubation. In all cases, data were corrected with the number of cells that swam into buffer containing capillaries.

PA2652-LBD [2] = biological target: T1, PA2652-LBD (Pseudomonas aeruginosa, UniProt Q9I0I6); test: ITC titration with L-malic acid in absence and presence of antagonists (competition); type: binding, Pseudomonas aeruginosa PAO1
T1 construct: The DNA fragment encoding the LBD of PA2652 (Lys^34–Thr^205) was amplified; His-tag (vector-encoded by pET28b(+) via NdeI site); made in house; host or cells: Escherichia coli BL21 (DE3)
Excerpt: In order to understand the mechanistic role of these antagonistics in the chemotaxis behaviour of P. aeruginosa, we first carried out ITC binding studies. In these assays, we measured the affinity of L-malic acid for PA2652-LBD in the presence of different concentrations of citraconic and D,L-methylsuccinic acids. […] Considering the close structural similarity of antagonists and L-malic acid (Fig. 3) it is likely that these compounds compete for binding at the same site at PA2652.
Figure 7 Attractants and antagonists compete for binding at PA2652-LBD in vitro. Isothermal titration calorimetry analysis of the binding of L-malic acid to PA2652-LBD in the absence and presence of 2 or 20 mM of the antagonists, citraconic and D,L-methylsuccinic acids. Upper panel: Titration raw data for the injection of 9.6 μl aliquots of 1 mM of L-malic acid into 20 μM of protein in the absence and presence of antagonists (present both in the injector syringe and sample cell). Lower panel: Integrated, dilution heat corrected and concentration normalized peak areas fitted with the “One binding site” model of ORIGIN. The apparent binding constants are listed in Supplementary Table S2.
(§1) Experiments were conducted on a VP-microcalorimeter (Microcal, Amherst, MA, USA) at 20 °C. PA2652-LBD was dialyzed overnight against TNG buffer, adjusted to a concentration of 20–35 μM and placed into the sample cell of the instrument. The protein was titrated by the injection of 9.6–14.4 μl aliquots of 1–20 mM ligand solutions that were prepared in TNG buffer (20 mM Tris/HCl, 150 mM NaCl, 10% (v/v) glycerol, pH 6.8) immediately before use. The mean enthalpies measured from the injection of ligands into buffer were subtracted from raw titration data prior to data analysis with the MicroCal version of ORIGIN. Data were fitted with the “One binding site model”.

[3] = system: Pseudomonas aeruginosa PAO1 (wt and PA2652 mutant); test: Growth experiments with ligands as sole carbon source; type: cell-based; settings: M9 minimal medium, 10 mM carbon source
Excerpt: To evaluate the physiological relevance of the ligands identified, we first addressed the question of whether they could support bacterial growth as sole carbon source. To this end, we conducted growth experiments of the wild type (wt) strain and a mutant defective in PA2652 in minimal medium supplemented with the different ligands as sole carbon sources.
Bacterial strains used in this study are listed in Supplementary Table S3. Pseudomonas aeruginosa PAO1 and its derivative strains were routinely grown at 37 °C in Luria Broth (LB; 5 g yeast extract l^−1, 10 g Bacto tryptone l^−1 and 5 g NaCl l^−1) or M9 medium supplemented with 1 mM MgSO4, 6 mg l^−1 Fe-citrate, trace elements[81] and 15 mM glucose as carbon source. For growth experiments to assess the capacity of PA2652-LBD ligands to support growth a sole C-source, PAO1 cells were pre-cultured overnight in M9 medium supplemented with 10 mM glucose and washed twice with M9 medium salts, prior to the inoculation of M9 medium containing10 mM of the different carbon sources. When necessary, the pH of the medium was adjusted to 7.0 prior to inoculation. Bacterial growth over the time was monitored using Bioscreen Microbiological Growth Analyser (Oy Growth Curves Ab Ltd, Helsinki, Finland). Escherichia coli strains were grown at 37 °C in LB. Escherichia coli DH5α was used as a host for gene cloning. When appropriate, antibiotics were used at the following final concentrations (in µg ml^−1): kanamycin, 25 (E. coli strains) and 100 (Pseudomonas strains); tetracycline, 40.

PA2652-LBD [4] = biological target: T1, PA2652-LBD; test: biochemical; type: binding, Pseudomonas aeruginosa PAO1
Procedure: To unambiguously determine ligand binding, we conducted Isothermal Titration Calorimetry (ITC)[40] binding studies with the purified protein.
as §1

[5] = L-malic acid titration in presence of 2 mM D,L-methylsuccinic acid
[6] = L-malic acid titration in presence of 2 mM citraconic acid
[7] = L-malic acid titration in presence of 20 mM D,L-methylsuccinic acid
[8] = L-malic acid titration in presence of 20 mM citraconic acid
[9] = L-malic acid titration, no antagonist

T1 sequence (Q9I0I6 34-205): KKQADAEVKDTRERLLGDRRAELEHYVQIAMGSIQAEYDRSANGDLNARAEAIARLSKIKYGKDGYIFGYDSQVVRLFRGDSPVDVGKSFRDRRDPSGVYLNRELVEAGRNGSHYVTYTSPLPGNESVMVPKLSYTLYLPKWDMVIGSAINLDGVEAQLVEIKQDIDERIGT

O=C(O)C[C@H](O)C(=O)O [L-malic acid]
Role of PA2652 ligand (chemoattractant or antagonist) ([1]; authors' classification from chemotaxis results): chemoattractants
Chemotactic response ([1]; wt PAO1, ligands at 10 µM to 100 mM): strong chemotaxis responses
Kd (PA2652-LBD [2]): 23 ± 1 µM
n (apparent) (PA2652-LBD [2]; [5]): 0.6 ± 0.1
∆H (apparent) (PA2652-LBD [2]; [5]): -6.7 ± 1 kcal/mol
n (apparent) (PA2652-LBD [2]; [6]): 0.9 ± 0.2
∆H (apparent) (PA2652-LBD [2]; [6]): -5.1 ± 1 kcal/mol
n (apparent) (PA2652-LBD [2]; [7]): 1.1 ± 0.9
∆H (apparent) (PA2652-LBD [2]; [7]): -2.6 ± 2 kcal/mol
n (apparent) (PA2652-LBD [2]; [8]): 1.1 ± 1
∆H (apparent) (PA2652-LBD [2]; [8]): -3.3 ± 5 kcal/mol
n (apparent) (PA2652-LBD [2]; [9]): 1 ± 0.1
∆H (apparent) (PA2652-LBD [2]; [9]): -4.1 ± 0.6 kcal/mol
Change of apparent affinity of L-malic acid (PA2652-LBD [2]; antagonists increased to 20 mM): further reduction in the apparent affinity
Change of apparent affinity of L-malic acid (PA2652-LBD [2]; in the presence of 2 mM antagonists (citraconic or D,L-methylsuccinic acid)): decreased approximately by a factor of two
Ability to support bacterial growth as sole carbon source [3]: able to efficiently sustain growth
Kd (PA2652-LBD [4]): 23 ± 1 µM
TΔS (entropy change of binding) (PA2652-LBD [4]; ITC): 2.1 ± 1 kcal/mol
Binding in ITC (PA2652-LBD [4]; YES/NO): YES
